Measured values as given in paper PMC3139667, “A Screen against Leishmania Intracellular Amastigotes: Comparison to a Promastigote Screen and Identification of a Host Cell-Specific Hit” (PLoS Neglected Tropical Diseases, 2011).
“Also recorded” adds a separate entry of the source.

Columns and labels:
[1] = tested on: L. donovani axenic amastigotes; assay: Dose response study against axenic amastigotes (CellTiter-Glo); format: cell-based, Leishmania donovani; details: for GI50: Leishmania donovani, 72 h at 37°C, CellTiter-Glo, read-out: GI50 Axenic amastigote
Method: L. donovani axenic amastigotes (5×10^5 cells/ml in axenic amastigote media) were dispensed in sterile 96-well flat white opaque assay plates (Greiner Bio-One) using a WellMate multichannel dispenser (Matrix). […] 1% DMSO and amphotericin B (2 µM, 1% DMSO final concentration) were added as negative and positive controls respectively. Axenic amastigotes were incubated with the compounds for 72 h at 37°C with 5% CO2. Parasite viability was then measured using CellTiter-Glo as described above.

[2] = tested on: L. donovani intracellular amastigotes; assay: Intracellular amastigote high-throughput image-based assay in infected THP-1 macrophages; format: cell-based, Leishmania donovani; details: for GI50: Leishmania donovani, THP-1, 72 h, L. donovani in THP-1, 72 h, parasites per host cell, read-out: GI50 Intracellular amastigote; for Specificity: ratio between promastigote GI50 and intracellular amastigote GI50, >2 more active against intracellular amastigote, <0.4 more active against promastigotes
Method: (§1) Sterile, black, 96-well, clear bottom plates (Greiner Bio-One) were seeded with exponentially growing THP-1 (5×10^5cells/ml). THP-1 were treated with 0.1 µM phorbol myristate acetate (PMA, Sigma) at 37°C for 48 h to achieve differentiation into adherent, non-dividing macrophages. Maturation of THP-1 cells towards monocyte-macrophage like cells is essential to avoid parasitized cells being overgrown by replicating cells. After activation by PMA, cells were washed and incubated with complete RPMI medium containing stationary phase L. donovani promastigotes at a macrophage/promastigote ratio of 1/15. After 4 h incubation at 37°C, non-internalized promastigotes were removed by 2–3 successive washes with RPMI containing 5% FBS and 5% horse serum. Test compounds (10 µM), positive control (2 µM amphotericin B) or negative control (1% DMSO) were then added to the cultures using a Biomek FXp liquid handler (Beckman Coulter). Cultures were incubated at 37°C for 72 h. Cells were then washed with phosphate-buffered saline (PBS), fixed for 30 minutes with 4% formaldehyde, rinsed again with PBS, stained for 2 h with 4′,6′-diamidino-2-phenylindole (DAPI 300 nM) and finally washed with PBS. […] Images were acquired with an INCell Analyzer 1000 automated epi-fluorescent microscope (G.E. Healthcare). The excitation and emission filters used to detect DAPI were 350/50 nm and 460/40 nm respectively. Eight image fields were acquired per well with a 20X objective. The proprietary INCell Developer Toolbox 1.7 software was used for image analysis. Segmentation parameters were set to identify host nuclei with a minimum area of 250 µm^2 and parasite kinetoplast with an average area of 1 µm^2. The intensity of parasite nucleus was too low to be detected with a 20X objective. A border, representing the boundary of the cell, was drawn around the nucleus (total area between 700 and 2000 µm^2). Only parasites found within this area were included in the calculation to eliminate extracellular parasites. False positive parasite detection in the nucleus was also excluded from the calculation. Host cell nuclei and parasite kinetoplasts were counted and the ratio of parasites DNA to host nuclei was selected as the measurement output. Percentage inhibition of parasite growth was calculated as [1-(P/hcx-P/hc^+)/(P/hc^−-P/hc^+)]*100 where P/hcx, P/hc^+ and P/hc^− are parasite per host cell ratio for every well, positive control (amphotericin B) and negative control (DMSO) respectively. Calculation of Z' factor and GI50 curve fitting were carried out as described above.

THP-1 = assay: Host cell toxicity: THP-1 host nuclei counts in the image-based assay; details: for GI50: Homo sapiens, THP-1, 72 h, read-out: GI50 THP-1; for Selectivity: ratio between parasite GI50 and THP-1 GI50
Method: as §1

[3] = tested on: L. donovani promastigotes; assay: Promastigote high-throughput ATP-bioluminescence assay; format: cell-based, Leishmania donovani; details: for GI50: Leishmania donovani, 72 h at 27°C, CellTiter-Glo, read-out: GI50 Promastigote
Method: L. donovani promastigotes from an exponentially growing culture were diluted to 10^6/ml in RPMI containing 10% FBS and 10% BHT. The diluted culture (99 µl/well) was dispensed in sterile 96-well flat white opaque assay plates (Greiner Bio-One) using a WellMate multichannel dispenser (Matrix). 1 µl of 1 mM test compound dissolved in DMSO was added to the plates for a final concentration of 10 µM compound and 1% DMSO. Amphotericin B was added as a positive control (final concentration 2 µM, 1% DMSO) and as a negative control, 1 µl DMSO was added (1% final concentration). Compounds and controls were added to the assay plate with the robotic dispenser Biomek FXp liquid handler (Beckman Coulter). Promastigotes were incubated with the compounds for 72 h at 27°C. The parasites were then lysed by adding 50 µl of CellTiter-Glo (Promega) and placed on an orbital shaker for 5 min at room temperature. After lysis, the resulting ATP-bioluminescence was measured using the Analyst HT plate reader (Molecular Devices). Percentage inhibition of parasite growth was calculated for each well as [1-(RLUx-RLU^+)/(RLU^--RLU^+)]*100 where RLUx, RLU^+ and RLU^- are respectively the Relative Light Units for each well, positive (amphotericin B) and negative (DMSO) controls. A screening window coefficient, denoted Z' factor, was used to evaluate the performance of the assay. The Z' factor, calculated as 1-(3σc++3σc−)/(µc+−µc−) where σc+, σc−, µc+ and µc− are respectively the standard deviation and mean values of positive and negative controls, is reflective of the assay signal dynamic range and the data variation associated with signal measurement. […] GI50 curve fitting was carried out using GraphPad Prism 4 Software (GraphPad Software Inc., San Diego, CA).

Row | SMILES | GI50 [1] | GI50 [2] | Specificity [2] | GI50 (THP-1) | Selectivity (THP-1) | GI50 [3] | Activity against axenic amastigotes (in words) ([1]; dose response, up to 50 µM) | Primary screen against intracellular amastigotes, hit selection ([2]; 10 µM, duplicates, hit = 60% parasite growth inhibition and not more than 20% reduction in THP-1 numbers) | Activity against intracellular amastigotes (in words) ([2]; dose response, up to 50 µM) | Toxicity to the host macrophage (in words) (THP-1; dose response, up to 50 µM) | Primary screen against promastigotes, hit selection ([3]; 10 µM, hit = 60% parasite growth inhibition) | Activity against promastigotes (in words) ([3]; dose response, up to 50 µM)
1 | CN(C)C(=S)SSC(=S)N(C)C [Thiram] | 5.42 µM | 10.4 µM | 0.44 | 1.58 µM | 0.34 | 4.62 µM |  |  |  |  |  | 
2 | Cc1ccc2c(Cl)cc(Cl)c(O)c2n1 [chlorquinaldol] | 1.72 µM | 5.5 µM | 1.14 | 39.3 µM | 7.14 | 6.3 µM |  |  |  |  |  | 
3 | C=CCN1CC[C@]23c4c5ccc(O)c4O[C@H]2C(=O)CC[C@@]3(O)[C@H]1C5 [naloxone] |  |  |  |  |  |  | inactive | not selected as a hit | inactive; also recorded: did not show any activity | not toxic | not selected as a hit | inactive
